Where only a bound is given, the exact number is not on record here.

Drawing on patent US7307085B2, “Mitotic kinesin inhibitors” (Merck & Co., Inc., priority 2003, dated 2007), this text covers IC50 for two compounds.

The target in the test is T1, human KSP motor domain (KSP(367H)) (Homo sapiens, UniProt P52732).
T1 construct: were used to amplify the motor domain and the neck linker region; made in house; host or cells: E. coli BL21 (DE3)
T1 sequence (P52732 18-359 limits assumed): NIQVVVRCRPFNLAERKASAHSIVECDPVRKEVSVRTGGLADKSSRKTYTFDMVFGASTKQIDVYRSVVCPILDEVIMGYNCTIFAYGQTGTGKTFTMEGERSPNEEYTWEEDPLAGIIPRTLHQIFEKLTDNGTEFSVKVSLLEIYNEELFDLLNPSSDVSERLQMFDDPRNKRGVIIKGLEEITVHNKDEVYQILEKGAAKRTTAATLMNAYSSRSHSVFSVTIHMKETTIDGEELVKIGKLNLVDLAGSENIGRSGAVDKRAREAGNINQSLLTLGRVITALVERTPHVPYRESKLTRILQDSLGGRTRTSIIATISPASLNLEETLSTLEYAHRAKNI
In words: Kinesin ATPase In Vitro Assay. As to conditions: human poly-histidine tagged KSP motor domain with microtubules, 1 mM ATP, 23° C. Type of test: biochemical. From the text: I. Kinesin ATPase In Vitro Assay
Cloning and Expression of Human Poly-Histidine Tagged KSP Motor Domain_(KSP(367H))
Plasmids for the expression of the human KSP motor domain construct were cloned by PCR using a pBluescript full length human KSP construct (Blangy et al., Cell, vol. 83, pp 1159-1169, 1995) as a template. The N-terminal primer 5′-[…] (SEQ.ID.NO.: 1) and the C-terminal primer 5′-[…] […]lCAGGCTTATTCAATAT (SEQ.D.NO.: 2) were used to amplify the motor domain and the neck linker region. The PCR products were digested with AseI and XhoI, ligated into the NdeI/XhoI digestion product of pRSETa (Invitrogen) and transformed into E. coli BL21 (DE3).
Cells were grown at 37° C. to an OD600 of 0.5. […]
The kinesin motor domain is incubated with microtubules, 1 mM ATP (1:1 MgCl2: Na-ATP), and compound at 23° C. in buffer containing 80 mM K-HEPES (pH 7.0), 1 mM EGTA, 1 mM DTT, 1 mM MgCl2, and 50 mM KCl. […] Free phosphate from the ATP hydrolysis reaction is measured via a quinaldine redlammonium molybdate assay by adding a […] volume of quench C (e.g., to a mixture of 40 μl reaction volume+40 μl stop buffer is then added 120 μl quench C). […] Quench C is a 2:1 ratio of quench A:quench B The reaction is incubated for 5-10 minutes at 23° C., and the absorbance of the phospho-molybdate complex is measured at 540 nm.

As for `O=C1CC[C@@H]2CC(c3cc(F)ccc3F)=C[C@@H](c3ccccc3)N12` [1-5, (−)-(5S,8aR)-7-(2,5-difluorophenyl)-5-phenyl-1,5,8,8a-tetrahydroindolizin-3(2H)-one], the IC50 (usually the midpoint of a concentration-inhibition curve) was not above 50 µM.

The compound `O=C1CC[C@@H]2C=C(c3cc(F)ccc3F)C[C@@H](c3ccccc3)N12` [1-6, (+)-(5S,8aR)-7-(2,5-difluorophenyl)-5-phenyl-1,5,6,8a-tetrahydroindolizin-3(2H)-one] registered an IC50 not above 50 µM.
